The subject of series [1] is Human immunodeficiency virus 1. Kind of series: Antiviral activity against NNRTI-resistant HIV-1 harboring E138K mutant infected in human MT4 cells assessed as virus-induced cytopathicity incubated for 5 days by MTT assay. Type of series: functional, organism-based. Conditions: Human immunodeficiency virus 1, MT4, 120 h.
The nature of series [2]: Cytotoxicity against human MT4 cells assessed as cell growth inhibition incubated for 5 days by MTT assay. Type of series: toxicity, cell-based. Conditions: time 5 day.
In series [3] the test system is Human immunodeficiency virus 1. The series is described as follows: Antiviral activity against HIV-1 RES056 infected in human MT4 cells assessed as reduction in virus induced cytopathic effect incubated for 5 days by MTT assay. Type of series: functional, organism-based. The note with it: Human immunodeficiency virus 1, RES056, MT4, 120 h.
Series [4] deals with Human immunodeficiency virus 1. Kind of series: Antiviral activity against HIV-1 IIIB infected in human MT4 cells assessed as reduction in virus induced cytopathic effect incubated for 5 days by MTT assay. Type of series: functional, organism-based. The note with it: Human immunodeficiency virus 1, IIIB, MT4, 120 h.
Series [5] can be described thus: Selectivity index, ratio of CC50 for cytotoxicity against human MT4 cells assessed as reduction in cell viability to EC50 for antiviral activity against HIV-1 IIIB infected in human MT4 cells assessed as reduction in virus induced cytopathic effect. Type of series: toxicity, cell-based. The note with it: read-out: Ratio CC50/EC50.

SMILES strings stand for the structures. Where only a bound is given, the exact number is not on record here.

For the molecule `Cc1ccnc2c1NC(=O)c1cccnc1N2C1CC1` [NEVIRAPINE], the EC50 in series [1] is 0.168 µM; in series [3] it was more than 15 µM; in series [4], 0.151 µM. Besides, the CC50 at 120 h in series [2] is more than 15 µM.
Consider `O=C1Nc2ccc(Cl)cc2[C@@](C#CC2CC2)(C(F)(F)F)O1` [EFAVIRENZ], for which, in series [2], the CC50 at 120 h was more than 6.35 µM.
`Cc1cc(C#N)cc(C)c1Oc1nc(Nc2ccc(CN3CCNCC3)cc2)ncc1C(N)=O`: in series [2], the CC50 at 120 h was more than 273 µM. Moreover, the EC50 in series [3] was more than 273 µM; in series [4], 13.4 µM. The selectivity ratio in series [5] is more than 20.
As for `Cc1cc(C#N)cc(C)c1Oc1nc(Nc2ccc(C#N)cc2)nc(N)c1Br` [ETRAVIRINE], the results for the EC50 in series [1] and in series [3] were 0.01 µM and 0.061 µM, respectively. For the same molecule, in series [2], the CC50 at 120 h was more than 4.6 µM.
For the molecule `Cc1cc(C#N)cc(C)c1Oc1nc(Nc2ccc(CN3CCN(S(C)(=O)=O)CC3)cc2)ncc1C(N)=O`, the CC50 at 120 h in series [2] was more than 233 µM. Also, the EC50 is more than 233 µM in series [3] and 1.77 µM in series [4]. For the same molecule, in series [5], the selectivity ratio is more than 132.
With `Cc1cc(C#N)cc(C)c1Oc1nc(NC2CCN(c3cccc(C#N)c3)CC2)ncc1C(N)=O`, in series [2], the CC50 at 120 h is 111 µM. Also, the results for the EC50 in series [3] and in series [4] were 48.1 µM and 0.276 µM, respectively. Besides, the selectivity ratio in series [5] came to 402.
In the same order, the values of `Cc1cc(C#N)cc(C)c1Oc1nc(NC2CCN(c3cccc(C(N)=O)c3)CC2)ncc1C(N)=O` are more than 257 µM, more than 257 µM, 43.9 µM and more than 6.
On to `Cc1cc(C#N)cc(C)c1Oc1nc(Nc2ccc(C#N)nc2)ncc1C(N)=O`, for which the CC50 at 120 h in series [2] was found to be 27.9 µM. Moreover, the EC50 in series [3] was more than 27.9 µM; in series [4] it was 0.128 µM. In series [5], the selectivity ratio came to 218.
In the same order, the values of `Cc1cc(C#N)cc(C)c1Oc1nc(Nc2ccc(CN3CCN(S(N)(=O)=O)CC3)cc2)ncc1C(N)=O` are 173 µM, more than 173 µM, 1.55 µM and 112.

The values are drawn from ChEMBL document CHEMBL5331067, “Disubstituted pyrimidine-5-carboxamide derivatives as novel HIV-1 NNRTIs: Crystallographic overlay-based molecular design, synthesis, and biological evaluation” (Eur J Med Chem, 2023).
